In patent publication US20240158446A1, “CYCLIC COMPOUND HAVING SELECTIVE INHIBITORY ACTION ON KRAS OVER HRAS AND NRAS” (CHUGAI SEIYAKU KABUSHIKI KAISHA, priority 2021, published 2024):

Assays:
[1] = biological target: GDP-bound HRAS wild-type protein (Homo sapiens, UniProt P01112); assay: Binding to HRAS by surface plasmon resonance (SPR), Single Cycle Kinetics; conditions: for HRAS/KRAS (ratio of KD value with respect to GDP-bound HRAS wild-type protein to KD value with respect to KRAS): SPR KD ratio HRAS/KRAS, class symbols; for HRAS/KRAS (ratio of KD value for HRAS to KD value for KRAS): SPR, GDP-bound HRAS wild-type protein vs GDP-bound KRAS wild-type protein
[2] = biological target: GDP-bound NRAS wild-type protein (Homo sapiens, UniProt P01111); assay: Binding to NRAS by surface plasmon resonance (SPR), Single Cycle Kinetics; conditions: for NRAS/KRAS (ratio of KD value with respect to GDP-bound NRAS wild-type protein to KD value with respect to KRAS): SPR KD ratio NRAS/KRAS, class symbols; for NRAS/KRAS (ratio of KD value for NRAS to KD value for KRAS): SPR, GDP-bound NRAS wild-type protein vs GDP-bound KRAS wild-type protein
GDP-bound NRAS wild-type protein, sequence (P01111 whole entry): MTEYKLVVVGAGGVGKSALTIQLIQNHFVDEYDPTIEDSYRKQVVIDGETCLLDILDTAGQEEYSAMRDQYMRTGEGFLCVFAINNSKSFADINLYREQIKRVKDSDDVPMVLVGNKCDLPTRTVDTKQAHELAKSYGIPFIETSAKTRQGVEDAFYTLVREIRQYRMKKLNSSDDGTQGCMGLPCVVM

GDP-bound HRAS wild-type protein, sequence (P01112 whole entry): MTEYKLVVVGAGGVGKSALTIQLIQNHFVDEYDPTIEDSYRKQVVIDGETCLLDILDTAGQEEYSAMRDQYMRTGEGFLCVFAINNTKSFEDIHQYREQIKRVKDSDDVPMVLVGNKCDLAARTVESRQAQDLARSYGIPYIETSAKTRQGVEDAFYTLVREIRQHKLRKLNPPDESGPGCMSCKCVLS

Row | SMILES | HRAS/KRAS (ratio of KD value with respect to GDP-bound HRAS wild-type protein to KD value with respect to KRAS) [1] | NRAS/KRAS (ratio of KD value with respect to GDP-bound NRAS wild-type protein to KD value with respect to KRAS) [2] | HRAS/KRAS (ratio of KD value for HRAS to KD value for KRAS) [1] | NRAS/KRAS (ratio of KD value for NRAS to KD value for KRAS) [2] | also measured
1 | CCC[C@H]1C(=O)N[C@@H]([C@@H](C)CC)C(=O)N(C)CC(=O)N(C)[C@H]2C/C=C\CCN(C2=O)[C@@H](Cc2ccc(C)cc2)C(=O)N(C)CC(=O)N[C@@H](CCc2ccc(Cl)c(Cl)c2)C(=O)N2C[C@H](OCC)C[C@H]2C(=O)NC2(CC(C)(C)C2)C(=O)N(C)[C@@H](CC2CC2)C(=O)N(C)[C@H](C(=O)N(C)C)CC(=O)N1C [PP2799] | A (a compound having 10 or more and less than 20 is denoted as A) | A (a compound having 10 or more and less than 20 is denoted as A) | – | – | –
2 | CCC[C@H]1C(=O)N[C@@H]([C@@H](C)CC)C(=O)N(C2CC2)CC(=O)N(C)[C@H]2C/C=C\CCN(C2=O)[C@@H](Cc2ccc(C)cc2)C(=O)N(C)CC(=O)N[C@@H](CCc2cc(Cl)c(C(F)F)c(Cl)c2)C(=O)N2C[C@H](OCC)C[C@H]2C(=O)NC2(CC(C)(C)C2)C(=O)N(C)[C@@H](C2CCCC2)C(=O)N(C)[C@H](C(=O)N(C)C)CC(=O)N1C [PP2877] | A (a compound having 10 or more and less than 20 is denoted as A) | A (a compound having 10 or more and less than 20 is denoted as A) | – | – | –
3 | CCC(CC)[C@H]1C(=O)N(C)[C@H](C(=O)N(C)C)CC(=O)N(C)[C@@H](COC)C(=O)N[C@@H]([C@@H](C)CC)C(=O)N(C)CC(=O)N(C)[C@H]2C/C=C\CCN(C2=O)[C@@H](Cc2ccc(C)cc2)C(=O)N(C)CC(=O)N[C@@H](CCc2ccc(C(F)(F)F)c(OC)c2)C(=O)N2CCCC[C@H]2C(=O)NC2(CC(C)(C)C2)C(=O)N1C [PP2937] | A (a compound having 10 or more and less than 20 is denoted as A) | A (a compound having 10 or more and less than 20 is denoted as A) | – | – | –
4 | CCC[C@H]1C(=O)N[C@@H]([C@@H](C)CC)C(=O)N(C)CC(=O)N(C)[C@H]2C/C=C\CCN(C2=O)[C@@H](Cc2ccc(C)cc2)C(=O)N(C)CC(=O)N[C@@H](CCc2ccc(C(F)(F)F)c(Cl)c2)C(=O)N2C[C@H](CC)C[C@H]2C(=O)NC2(CCC2)C(=O)N(C)[C@@H](C2CCCC2)C(=O)N(C)[C@H](C(=O)N(C)C)CC(=O)N1C [PP2237] | – | – | A (a compound having 10 or more and less than 20 is denoted as A) | A (a compound having 10 or more and less than 20 is denoted as A) | –
5 | CCC[C@H]1C(=O)N[C@@H]([C@@H](C)CC)C(=O)N(C2CC2)CC(=O)N(C)[C@H]2C/C=C\CCN(C2=O)[C@@H](Cc2ccc(C)cc2)C(=O)N(C)CC(=O)N[C@@H](CCc2cc(C)c(C(F)F)c(C)c2)C(=O)N2C[C@H](OCC)C[C@H]2C(=O)NC2(CC(C)(C)C2)C(=O)N(C)[C@@H](C2CCCC2)C(=O)N(C)[C@H](C(=O)N(C)C)CC(=O)N1C [PP2873] | A (a compound having 10 or more and less than 20 is denoted as A) | A (a compound having 10 or more and less than 20 is denoted as A) | – | – | –
6 | CCC[C@H]1C(=O)N[C@@H]([C@@H](C)CC)C(=O)N(C)CC(=O)N(C)[C@H]2C/C=C\CCN(C2=O)[C@@H](Cc2ccc(C(F)(F)F)cc2)C(=O)N(C)CC(=O)N[C@@H](CCc2ccc3c(C)c(C)n(C)c3c2)C(=O)N2C[C@H](OCC)C[C@H]2C(=O)NC2(CC(C)(C)C2)C(=O)N(C)[C@@H](C(CC)CC)C(=O)N(C)[C@H](C(=O)N(C)C)CC(=O)N1C [PP2904] | A (a compound having 10 or more and less than 20 is denoted as A) | AA (a compound having 20 or more is denoted as AA) | – | – | –
7 | CCO[C@@H]1C[C@H]2C(=O)NC3(CCC3)C(=O)N(C)[C@@H](C3CCCC3)C(=O)N(C)[C@H](C(=O)N(C)C)CC(=O)N(C)[C@@H](CC)C(=O)N[C@@H]([C@@H](C)CC)C(=O)N3CC[C@@H]3C(=O)N(C)[C@H]3C/C=C\CCN(C3=O)[C@@H](Cc3ccc(C(F)(F)F)cc3)C(=O)N(C)CC(=O)N[C@@H](CCc3cc(F)c(C(F)(F)F)c(F)c3)C(=O)N2C1 [PP1064] | – | – | A (a compound having 10 or more and less than 20 is denoted as A) | A (a compound having 10 or more and less than 20 is denoted as A) | –
8 | CC[C@H](C)[C@@H]1NC(=O)[C@H](CC(C)C)N(C)C(=O)C[C@@H](C(=O)N2CCOCC2)N(C)C(=O)[C@H](C2CCCC2)N(C)C(=O)C2(CCC2)NC(=O)[C@@H]2[C@H](O)CCN2C(=O)[C@H](CCc2cc(F)c(C(F)(F)F)c(F)c2)NC(=O)CN(C)C(=O)[C@H](Cc2ccc(C(F)(F)F)cc2)N2CCCCC[C@@H](C2=O)N(C)C(=O)CN(C)C1=O [PP0873] | – | – | B (a compound having 3 or more and less than 10 is denoted as B) | A (a compound having 10 or more and less than 20 is denoted as A) | –
9 | CCC[C@H]1C(=O)N[C@@H]([C@@H](C)CC)C(=O)N(C2CC2)CC(=O)N(C)[C@H]2C/C=C\CCN(C2=O)[C@@H](Cc2ccc(C)cc2)C(=O)N(C)CC(=O)N[C@@H](CCc2ccc(C(F)(F)F)c(OC)c2)C(=O)N2C[C@H](OCC)C[C@H]2C(=O)NC2(CC(C)(C)C2)C(=O)N(C)[C@@H](C2CCCC2)C(=O)N(C)[C@H](C(=O)N(C)C)CC(=O)N1C [PP2097] | – | – | A (a compound having 10 or more and less than 20 is denoted as A) | A (a compound having 10 or more and less than 20 is denoted as A) | –
10 | CCCOC[C@H]1C(=O)N[C@@H]([C@@H](C)CC)C(=O)N(C)CC(=O)N(C)[C@H]2C/C=C\CCN(C2=O)[C@@H](Cc2ccc(C)cc2)C(=O)N(C)CC(=O)N[C@@H](CCc2cc(F)c(C(F)(F)F)c(F)c2)C(=O)N2C[C@H](OCC)C[C@H]2C(=O)NC2(CC(C)(C)C2)C(=O)N(C)[C@@H](C2CCCC2)C(=O)N(C)[C@H](C(=O)N(CC)CC)CC(=O)N1C [PP1578] | – | – | – | – | HRAS/KRAS (ratio of KD value for HRAS to KD value for KRAS) ([1]; KD ratio class): A (a compound having 10 or more and less than 20 is denoted as A); NRAS/KRAS (ratio of KD value for NRAS to KD value for KRAS) ([2]; KD ratio class): A (a compound having 10 or more and less than 20 is denoted as A)
11 | CCC[C@H]1C(=O)N[C@@H]([C@@H](C)CC)C(=O)N(C2CC2)CC(=O)N(C)[C@H]2C/C=C\CCN(C2=O)[C@@H](Cc2ccc(C(F)(F)F)cc2)C(=O)N(C)CC(=O)N[C@@H](CCc2cc(F)c(C(F)(F)F)c(F)c2)C(=O)N2C[C@H](OCC)C[C@H]2C(=O)NC2(CC(C)(C)C2)C(=O)N(C)[C@@H](CC(C)(C)C)C(=O)N(C)[C@H](C(=O)N(C)C)CC(=O)N1C [PP2742] | A (a compound having 10 or more and less than 20 is denoted as A) | AA (a compound having 20 or more is denoted as AA) | – | – | –
12 | CCC[C@@H]1C[C@H]2C(=O)NC3(CCC3)C(=O)N(C)[C@@H](C3CCCC3)C(=O)N(C)[C@H](C(=O)N(C)C)CC(=O)N(C)[C@@H](CC)C(=O)N[C@@H]([C@@H](C)CC)C(=O)N(C)CC(=O)N(C)[C@H]3C/C=C\CCN(C3=O)[C@@H](Cc3ccc(C)cc3)C(=O)N(C)CC(=O)N[C@@H](CCc3cc(F)c(C(F)(F)F)c(F)c3)C(=O)N2C1 [PP2233] | – | – | A (a compound having 10 or more and less than 20 is denoted as A) | A (a compound having 10 or more and less than 20 is denoted as A) | –
13 | CCCOC[C@H]1C(=O)N[C@@H]([C@@H](C)CC)C(=O)N(C)CC(=O)N(C)[C@H]2C/C=C\CCN(C2=O)[C@@H](Cc2ccc(C)cc2)C(=O)N(C)CC(=O)N[C@@H](CCc2cc(F)c(C(F)(F)F)c(F)c2)C(=O)N2C[C@H](OCC)C[C@H]2C(=O)NC2(CC(C)(C)C2)C(=O)N(C)[C@@H](C2CCCC2)C(=O)N(C)[C@H](C(=O)N(C)CC)CC(=O)N1C [PP1577] | – | – | – | – | HRAS/KRAS (ratio of KD value for HRAS to KD value for KRAS) ([1]; KD ratio class): B (a compound having 3 or more and less than 10 is denoted as B); NRAS/KRAS (ratio of KD value for NRAS to KD value for KRAS) ([2]; KD ratio class): B (a compound having 3 or more and less than 10 is denoted as B)
14 | C#CCN1CC(=O)N(C)[C@H]2C/C=C\CCN(C2=O)[C@@H](Cc2ccc(C)cc2)C(=O)N(C)CC(=O)N[C@@H](CCc2ccc(C(F)(F)F)c(OC)c2)C(=O)N2C[C@H](OCC)C[C@H]2C(=O)NC2(CC(C)(C)C2)C(=O)N(C)[C@@H](C2CCCC2)C(=O)N(C)[C@H](C(=O)N(C)C)CC(=O)N(C)[C@@H](CCC)C(=O)N[C@@H]([C@@H](C)CC)C1=O [PP2099] | – | – | A (a compound having 10 or more and less than 20 is denoted as A) | A (a compound having 10 or more and less than 20 is denoted as A) | –
15 | CCO[C@@H]1C[C@H]2C(=O)NC3(CC(C)(C)C3)C(=O)N(C)[C@@H](C3CCCC3)C(=O)N(C)[C@H](C(=O)N(C)C)CC(=O)N(C)[C@@H](CC(C)C)C(=O)N[C@@H]([C@@H](C)CC)C(=O)N(C)CC(=O)N(C)[C@H]3C/C=C\CCN(C3=O)[C@@H](Cc3ccc(C(C)C)cc3)C(=O)N(C)CC(=O)N[C@@H](CCc3ccc(C(F)(F)F)c(OC)c3)C(=O)N2C1 [PP2692] | A (a compound having 10 or more and less than 20 is denoted as A) | A (a compound having 10 or more and less than 20 is denoted as A) | – | – | –
